Experiment [1] has as its system MOLT-4. The experiment in a line: Down regulation of WT1 protein levels in human MOLT4 cells at 5 to 15 uM after 48 hrs by Western blot analysis relative to control. The format is functional. For orientation: A western blot detects proteins with antibodies after separation by electrophoresis.
Experiment [2] deals with MOLT-4. The experiment in a line: Cytotoxicity against human MOLT4 cells assessed as reduction in cell viability. The format is functional, cell-based.
Experiment [3] deals with KG-1a. The experiment in a line: Cytotoxicity against human KG1a cells assessed as reduction in cell viability after 48 hrs by MTT assay. The format is functional, cell-based.
For experiment [4], the system named is MOLT-4. The experiment in a line: Cytotoxicity against human MOLT4 cells assessed as reduction in cell viability after 48 hrs by MTT assay. The format is functional, cell-based. (Formazan colour is commonly taken as a measure of viable cells.)
In experiment [5] the test system is KG-1a. Kind of experiment: Down regulation of WT1 protein levels in human KG1a cells after 48 hrs by Western blot analysis relative to control. The format is functional.
Experiment [6] deals with MOLT-4. Kind of experiment: Down regulation of WT1 protein levels in human MOLT4 cells after 48 hrs by Western blot analysis relative to control. The format is functional.
The subject of the next experiment is KB. The experiment in a line: Cytotoxicity against human KB cells assessed as reduction in cell viability. The format is functional, cell-based.
For experiment [7], the system named is MCF7. Kind of experiment: Cytotoxicity against human MCF7 cells assessed as reduction in cell viability. The format is functional, cell-based.
The test system of the next experiment is NCI-H187. The experiment in a line: Cytotoxicity against human NCI-H187 cells assessed as reduction in cell viability. The format is functional, cell-based.
Experiment [8] concerns KG-1a. The experiment in a line: Antiproliferative activity against human KG1a cells at IC20 after 48 hrs by trypan blue exclusion assay relative to control. The format is functional.
Experiment [9] relates to MOLT-4. The experiment in a line: Antiproliferative activity against human MOLT4 cells at IC20 after 48 hrs by trypan blue exclusion assay relative to control. The format is functional.
The test system of experiment [10] is KG-1a. Kind of experiment: Potency index, ratio of doxorubicin IC50 to compound IC50 for human KG1a cells. The format is functional.
Experiment [11] has as its system MOLT-4. Kind of experiment: Potency index, ratio of doxorubicin IC50 to compound IC50 for human MOLT4 cells. The format is functional.
The next experiment relates to HeLa. Kind of experiment: Growth inhibition of human HeLa cells after 48 hrs by MTT assay. The format is functional, cell-based.
Another experiment concerns HepG2. Kind of experiment: Growth inhibition of human HepG2 cells after 48 hrs by MTT assay. The format is functional, cell-based. Conditions: HepG2, 48 h.
The subject of another experiment is HL-60. The experiment in a line: Growth inhibition of human HL60 cells after 48 hrs by MTT assay. Conditions: HL-60, 48 h. The format is functional, cell-based.
Experiment [12] concerns PC-3. The experiment in a line: Growth inhibition of human PC3 cells after 48 hrs by MTT assay. The format is functional, cell-based. The following applies: PC-3, 48 h.
Another experiment has as its system SGC-7901. Kind of experiment: Growth inhibition of human SGC7901 cells after 48 hrs by MTT assay. The format is functional, cell-based. Conditions: SGC-7901, 48 h.
The subject of another experiment is HT-1080. The experiment in a line: Growth inhibition of human HT1080 cells after 48 hrs by MTT assay. The format is functional, cell-based. Conditions: HT-1080, 48 h.
Experiment [13] relates to MCF7. Kind of experiment: Cytotoxicity against human MCF7 cells assessed as reduction in cell viability after 72 hrs by MTT assay. The format is functional, cell-based.
The subject of the next experiment is Ca-Ski. Kind of experiment: Cytotoxicity against human CaSki cells assessed as reduction in cell viability after 72 hrs by MTT assay. The format is functional, cell-based.
The test system of experiment [14] is PC-3. The experiment in a line: Cytotoxicity against human PC3 cells assessed as reduction in cell viability after 72 hrs by MTT assay. The format is functional, cell-based.
In another experiment the test system is HT-29. The experiment in a line: Cytotoxicity against human HT-29 cells assessed as reduction in cell viability after 72 hrs by MTT assay. The format is functional, cell-based.
The next experiment relates to HUVEC. Kind of experiment: Cytotoxicity against human HUVEC cells assessed as reduction in cell viability after 72 hrs by MTT assay. The format is functional, cell-based.
The mark [15] stands for this setting: Homo sapiens, MOLT-4, 48 h, read-out: IC50.

This is an account of results in ChEMBL document CHEMBL4184103, “Cytotoxicity and inhibition of leukemic cell proliferation by sesquiterpenes from rhizomes of Mah-Lueang (Curcuma cf. viridiflora Roxb.)” (Bioorg Med Chem Lett, 2018).

Broadly, the IC50 is the concentration needed to halve the response being measured. What is called IC20 is the concentration needed for an effect of 20%.

In brackets after ≈: the same amount, converted by molar mass. Several values for one entry are separate records, joined by “and”; a condition that tells them apart may be missing. Identical values can stand only once. Some results are limits rather than exact numbers.

`COc1cc(/C=C/C(=O)CC(=O)/C=C/c2ccc(O)c(OC)c2)ccc1O` [CURCUMIN] had an Activity in the experiment on MOLT-4 [1] of 90%.
For the compound `CC[C@]1(O)C[C@H]2CN(CCc3c([nH]c4ccccc34)[C@@](C(=O)OC)(c3cc4c(cc3OC)N(C=O)[C@H]3[C@@](O)(C(=O)OC)[C@H](OC(C)=O)[C@]5(CC)C=CCN6CC[C@]43[C@@H]65)C2)C1` [VINCRISTINE], in the experiment on MOLT-4 [2], the IC50 stood at 0.00063 µg/mL (≈ 0.000764 µM).
As for `CC(C)=C1C[C@H]2[C@@H](CC[C@]2(C)O)[C@](C)(O)CC1=O` [ZEDOARONDIOL], the IC20 with KG-1a [3] amounted to 60 µg/mL (≈ 238 µM). In addition, the concentration for half-maximal inhibition (IC50) with KG-1a [3] was above 100 µg/mL; in the experiment with MOLT-4 [4] (setting [15]) it was 77.6 µg/mL (≈ 308 µM); in the experiment with MOLT-4 [4] (molt-4) it was 49 µg/mL (≈ 194 µM); in the experiment on KB it was above 50 µg/mL; with MCF7 [7], above 50 µg/mL; with NCI-H187, above 50 µg/mL. In addition, the Activity in the experiment on KG-1a [5] is listed as 95.52%; in the experiment on MOLT-4 [6], 63.17%; in the experiment with KG-1a [8], 30.48%; in the experiment with MOLT-4 [9] it was 48.99%.
In the case of `C/C1=C\Cc2c(C)coc2C/C(C)=C/CC1` [ISOFURANODIENE], the IC20 in the experiment with KG-1a [3] worked out at 25 µg/mL (≈ 116 µM). Moreover, the IC50 in the experiment on KG-1a [3] is 50.1 µg/mL (≈ 232 µM); in the experiment on MOLT-4 [4] (setting [15]), 39.6 µg/mL (≈ 183 µM); with MOLT-4 [4] (molt-4), 23 µg/mL (≈ 106 µM); in the experiment on HeLa, 0.6 to 4 µg/mL (≈ 2.77 to 18.5 µM); in the experiment on HepG2, 0.6 to 4 µg/mL (≈ 2.77 to 18.5 µM); in the experiment on HL-60, 0.6 to 4 µg/mL (≈ 2.77 to 18.5 µM). In addition, the half-maximal inhibitory concentration (IC50) in the experiment with PC-3 [12], in the experiment with SGC-7901 and with HT-1080 was 0.6 to 4 µg/mL (≈ 2.77 to 18.5 µM) throughout. Besides, the entries for the “Ratio IC50” value with KG-1a [10] and in the experiment with MOLT-4 [11] were 77 and 86, respectively. For the same compound, the Activity was 58.08% with KG-1a [5], 32.17% in the experiment on MOLT-4 [6], 19.58% in the experiment on KG-1a [8] and 10.74% with MOLT-4 [9].
Consider `COc1cccc2c1C(=O)c1c(O)c3c(c(O)c1C2=O)C[C@@](O)(C(=O)CO)C[C@@H]3O[C@H]1C[C@H](N)[C@H](O)[C@H](C)O1` [DOXORUBICIN], for which the IC50 was 0.65 µg/mL (≈ 1.2 µM) with KG-1a [3] and 0.46 µg/mL (≈ 0.846 µM) with MOLT-4 [4] (setting [15]).
`CC(C)=C1CC(=O)[C@@H](C)CC/C=C(\C)CC1=O`: in the experiment on KG-1a [3], the IC20 turned out to be 30 µg/mL (≈ 128 µM). The IC50 in the experiment on KG-1a [3] is above 100 µg/mL; with MOLT-4 [4] (molt-4), > 100 µg/mL and 35 µg/mL; in the experiment on MCF7 [13] (mcf7), 33 µg/mL (≈ 141 µM); with Ca-Ski it was 21.7 µg/mL (≈ 92.6 µM); in the experiment with PC-3 [14] (pc-3), 19.1 µg/mL (≈ 81.5 µM); in the experiment on HT-29 (ht-29), 22.7 µg/mL (≈ 96.9 µM). Also, the 50% inhibitory concentration (IC50) in the experiment with HUVEC (huvec) was 24 µg/mL (≈ 102 µM). For the same compound, the Activity worked out at 44.3% with KG-1a [5], 55.25% in the experiment on MOLT-4 [6], 19.92% in the experiment with KG-1a [8] and 49.44% in the experiment on MOLT-4 [9].
In the case of `CC(C)=C1C[C@@H]2O[C@@]2(C)CC/C=C(\C)CC1=O`, the concentration for an effect of 20% (IC20) with KG-1a [3] came to 20 µg/mL (≈ 85.3 µM). The half-maximal inhibitory concentration (IC50) in the experiment on KG-1a [3] was above 100 µg/mL; in the experiment with MOLT-4 [4] (setting [15]), above 100 µg/mL; in the experiment on MOLT-4 [4] (molt-4), 53 µg/mL (≈ 226 µM); in the experiment with MCF7 [13] (Homo sapiens, MCF7, 72 h) it was 37.2 µg/mL (≈ 159 µM); in the experiment with PC-3 [14] (Homo sapiens, PC-3, 72 h), 43.9 µg/mL (≈ 187 µM); with HT-29 (Homo sapiens, HT-29, 72 h), 39.6 µg/mL (≈ 169 µM). Further, in the experiment with HUVEC (Homo sapiens, HUVEC, 72 h), the IC50 is 48.4 µg/mL (≈ 207 µM). For the same compound, the Activity amounted to 92.22% in the experiment on KG-1a [5], 62.53% in the experiment on MOLT-4 [6], 24.27% in the experiment with KG-1a [8] and 55.7% with MOLT-4 [9].
